Like-named read-outs stand apart in the source and are kept apart here.
Key:
Type in all cases: binding, human
Antibodies to HIV-1 [1] = settings: adsorbed on latex beads, absorbance at 405 nm
Antibodies to HIV-2 = test: EIA of dilutional series of HIV-2 positive sera
Protocol: Alternative methods of testing immunologic cross-reactivity were also used. In one such method L5 Peptides 39 and 39GC were tested by ELISA as previously described in U.S. Pat. No. 4,629,783. Briefly, stock solutions of peptides 39 and 39-GC were prepared in 6M Gu-HCl. Working dilutions of 20 µg/ml and 6 μg/ml respectively were prepared by dilution of stock solution 0 with 0.05M carbonate/bicarbonate buffer, pH 9.5. Wells of microtiter plates were filled with 100 μl of the working dilution of the peptides and allowed to stand overnight at room temperature. Coating solution was removed and 300 μl of blocking solution supra containing 0.5M ethanolamine was added for 1 hr. at room temperature. Blocking solution was removed and the plates were used immediately or allowed to dry and stored for later use.
Plasma samples were diluted (See Table 1) in sample dilution buffer (above) and 100 μl was added to individual wells. Samples were incubated for 30 min. at 37° C., then removed and the wells were washed six times with 0.15M NaCl, 0.05% Tween 20. One hundred microliters of goat antihuman Ig-horseradish peroxidase conjugate diluted in citrate buffer, pH 7.0, 1% normal goat serum was added to each well for 30 min at 37° C. prior to washing six times as above. The ELISA assay was developed by adding 100 μl/well of substrate solution (80 μg/ml tetramethyl benzidine, 0.0015% hydrogen peroxide in citrate/phosphate buffer, pH 6.0) for 30 min. at room temperature. Reactions were stopped with the addition of 100 μl of H2SO4 per well, and the ratio of the optical density at 450 nm to 630 nm was determined by an automated ELISA reader. The cutoff value for a positive result was set at 0.225 Absorbance Units above the average absorbance obtained for three known negative samples.
The immunoreactivity of HIV-2 peptides synthesized with protected cysteine thiol groups was determined. […] EIAs were performed as described above using viral lysates of HIV-1 and HIV-2 and peptides 39GC (HIV-1) and 41-2-3GC. Reactivity was determined for dilutions of two HIV-2 positive sera, F504282, obtained from a patient in New York, and “GOM,” provided by the Institut Pasteur.
The assays were EIAs performed generally as described above with varying dilutions of HIV-2 positive serum specimens.

Antibodies to HIV-1 [2] = test system: Antibodies to HIV-1
Protocol: The subject peptide compositions were immobilized onto latex beads and entrapped on a microporous membrane atop an absorbent material for the determination and/or quantitation of antibodies to HIV. Examples of such immunoassay apparatus and methods are the subject of U.S. Pat. Nos. 4,633,901 and 4,727,019, both incorporated herein by reference. The membrane concentration immunoassay involves three incubations comprising a total assay time of 10 minutes. Peptides tested were adsorbed to latex beads by the methods described above.
Each sample was tested on a filtration unit comprising three spots on a 1.2 μm pore size nylon membrane. One spot comprising the test peptide/latex bead preparation, one spot comprising a positive procedural control and the other comprising a negative procedural control.
The peptide/latex bead preparation was suspended in 0.1M Tris buffer, pH 7.2, 0.15M NaCl, 0.01M MgCl2, 10% sucrose, 2% fetal calf serum. Membranes were spotted with a 0.1-0.2% suspension of peptide/bead preparation. Negative procedural control spots were comprised of latex beads coated by adsorption with BSA. While positive procedural control spots were comprised of latex beads coated by adsorption with goat antihuman immunoglobulins.
Serum or plasma samples (40 μl) were diluted 1:10 in dilution buffer (10% heat inactivated normal goat serum, 1% dextran sulfate, 0.2% Tween 20, 2.5% nonfat dry milk, 15 ppm Kathon CG, 0.005% antifoam A, in 20 mM sodium citrate buffer, pH 7.4). Diluted specimen was added to the surface of the membrane and allowed to absorb completely. After waiting 2 min. from the time of specimen addition, 1 ml of wash buffer (0.01M Tris-buffered saline, pH 6.0, 0.05M NaCl, 0.005M MgCl2, 0.1% sodium azide, 10 μg/ml nitro blue tetrazolium, 0.5M potassium thiocyanate) was added and allowed to completely absorb through the membrane. About 0.150 ml (3 drops) of goat anti-human Ig-alkaline phosphatase conjugate diluted in 10 mM phosphate buffered saline, pH 7.4, 0.2% goat gamma globulin, 1% bovine serum albumin, 1 mM MgCl2, 0.1 mM ZnCl2 was added to the membrane and allowed to absorb completely. The membrane was washed twice as above (2 ml) and about 0.150 ml (3 drops) of substrate (1M 2-amino-2-methyl-1-propanol, pH 10.3, 5 mg/ml 3-indoxyl phosphate) was added and allowed to absorb completely. After about 5 min. about 1 ml of 0.5M EDTA, pH 7.4, was passed through the membrane to stop the reaction. After the stop solution was completely absorbed the units were read visually or semi-quantitatively by reflectance.

## Cys-Gly-Gly-Arg-Ile-Leu-Ala-Val-Glu-Arg-Tyr-Leu-Lys-Asp-Gln-Gln-Leu-Leu-Gly-Ile-Trp-Gly-Cys*-Ser-Gly-Lys-Leu-Ile-Cys*-NH2 [Peptide 39GC]
Antibodies to HIV-1 [1]
  immunological reactivity compared with Peptide 39: substantial improvement over Peptide 39
Antibodies to HIV-2; HIV-2 positive serum F504282 (A), 1:5
  Reactivity in EIA: 0.049
Antibodies to HIV-2; HIV-2 positive serum F504282 (A), 1:10
  Reactivity in EIA: 0.042
Antibodies to HIV-2; HIV-2 positive serum F504282 (A), 1:20
  Reactivity in EIA: 0.037
Antibodies to HIV-2; HIV-2 positive serum F504282 (A), 1:40
  Reactivity in EIA: 0.035
Antibodies to HIV-2; HIV-2 positive serum F504282 (A), 1:80
  Reactivity in EIA: 0.033
Antibodies to HIV-2; HIV-2 positive serum F504282 (A), 1:160
  Reactivity in EIA: 0.040
Antibodies to HIV-2; HIV-2 positive serum F504282 (A), 1:320
  Reactivity in EIA: 0.031
Antibodies to HIV-2; HIV-2 positive serum F504282 (A), 1:640
  Reactivity in EIA: 0.031
Antibodies to HIV-2; HIV-2 positive serum F504282 (A), 1:1280
  Reactivity in EIA: 0.039
Antibodies to HIV-2; HIV-2 positive serum F504282 (A), 1:2560
  Reactivity in EIA: 0.030
Antibodies to HIV-2; HIV-2 positive serum F504282 (A), Neat
  Reactivity in EIA: 0.075
Antibodies to HIV-2; HIV-2 positive serum GOM (B), 1:2
  Reactivity in EIA: 0.052
Antibodies to HIV-2; HIV-2 positive serum GOM (B), 1:4
  Reactivity in EIA: 0.037
Antibodies to HIV-2; HIV-2 positive serum GOM (B), 1:8
  Reactivity in EIA: 0.040
Antibodies to HIV-2; HIV-2 positive serum GOM (B), 1:16
  Reactivity in EIA: 0.031
Antibodies to HIV-2; HIV-2 positive serum GOM (B), 1:32
  Reactivity in EIA: 0.035
Antibodies to HIV-2; HIV-2 positive serum GOM (B), 1:64
  Reactivity in EIA: 0.074
Antibodies to HIV-2; HIV-2 positive serum GOM (B), 1:128
  Reactivity in EIA: 0.031
Antibodies to HIV-2; HIV-2 positive serum GOM (B), 1:256
  Reactivity in EIA: 0.035
Antibodies to HIV-2; HIV-2 positive serum GOM (B), 1:512
  Reactivity in EIA: 0.040
Antibodies to HIV-2; HIV-2 positive serum GOM (B), 1:1024
  Reactivity in EIA: 0.037
Antibodies to HIV-1 [2]; Autoimmune Samples
  No. Positive/Total No.: 0/51
Antibodies to HIV-1 [2]; Normal Blood Bank Donors
  No. Positive/Total No.: 0/1187
Antibodies to HIV-1 [2]; Problematic HIV-I Seronegative Samples
  No. Positive/Total No.: 0/72
Antibodies to HIV-1 [2]; Secondary, Atypical Syphillis Sera/HIV Neg.
  No. Positive/Total No.: 0/26
Antibodies to HIV-1 [2]; Secondary, Atypical Syphillis Sera/HIV Pos.
  No. Positive/Total No.: 4/4
Antibodies to HIV-1 [2]; Western Blot Neg./LAV-EIA Pos.
  No. Positive/Total No.: 0/79
Antibodies to HIV-1 [2]; Western Blot Pos./LAV-EIA Pos. (OD < 1.5)
  No. Positive/Total No.: 120/120
Antibodies to HIV-1 [2]; Western Blot Pos./LAV-EIA Pos. (OD > 1.5)
  No. Positive/Total No.: 29/29
Antibodies to HIV-1 [2]; Western Blot p25 Neg./LAV/EIA Pos. (Atypical 1)
  No. Positive/Total No.: 0/39
Antibodies to HIV-1 [2]; Western Blot p25 Pos./LAV-EIA Pos. (Atypical 2)
  No. Positive/Total No.: 0/170
